Experimental data: patent US5776944A, “7-(4-aminomethyl-3-methyloxyiminopyrroplidin-1-yl)-1-cyclopropyl-6-flu oro-4-oxo-1,4-dihydro-1,8-naphthyridine-3-carboxylic acid and the process for the preparation thereof” (LG Chemical Ltd., priority 1994, dated 1998)
≈ marks a conversion by molar mass, not a printed value. Read-outs that look alike come from different tables or passages of the source.

Key:
[1] = test system: Staphylococcus aureus 6538p; assay: In vitro antibacterial activity (MIC, agar dilution), Biological Example 1; format: cell-based; conditions: 18 h, Table 25, read-out: Minimum Inhibitory Concentration
[2] = test system: Staphylococcus aureus giorgio; assay: as above; format: cell-based; conditions: 18 h, Table 25, read-out: Minimum Inhibitory Concentration
Staphylococcus aureus 77 = assay: as above; format: cell-based; conditions: 18 h; Staphylococcus aureus 77, Table 25; read-out: Minimum Inhibitory Concentration
[3] = test system: Staphylococcus aureus 241; assay: as above; format: cell-based; conditions: 18 h; Staphylococcus aureus 241, Table 25; read-out: Minimum Inhibitory Concentration
[4] = test system: Staphylococcus epidermidis 887E; assay: as above; format: cell-based; conditions: 18 h, Table 25, read-out: Minimum Inhibitory Concentration
[5] = test system: Staphylococcus epidermidis 178; assay: as above; format: cell-based; conditions: 18 h; Staphylococcus epidermidis 178, Table 25; read-out: Minimum Inhibitory Concentration
[6] = test system: Streptococcus faecalis 29212; assay: as above; format: cell-based; conditions: Enterococcus faecalis, 18 h; Streptococcus faecalis 29212, Table 25; read-out: Minimum Inhibitory Concentration
Bacillus subtilis 6633 = assay: as above; format: cell-based; conditions: 18 h; Bacillus subtilis 6633, Table 25; read-out: Minimum Inhibitory Concentration
Micrococcus luteus 9341 = assay: as above; format: cell-based; conditions: 18 h; Micrococcus luteus 9341, Table 25; read-out: Minimum Inhibitory Concentration
Escherichia coli 10536 = assay: as above; format: cell-based; conditions: read-out: Minimum Inhibitory Concentration
Escherichia coli 3190Y = assay: as above; format: cell-based; conditions: 18 h, Table 25, read-out: Minimum Inhibitory Concentration
Escherichia coli 851E = assay: as above; format: cell-based; conditions: 18 h, Table 25, read-out: Minimum Inhibitory Concentration
[7] = test system: Escherichia coli TEM3 3455E; assay: microbe, parasite or virus in culture; format: cell-based; conditions: TEM33455E, 18 h, read-out: Minimum Inhibitory Concentration
[8] = test system: Escherichia coli TEM5 3739E; assay: microbe, parasite or virus in culture; format: cell-based; conditions: TEM53739E, 18 h, read-out: Minimum Inhibitory Concentration
[9] = test system: Escherichia coli TEM9 2639E; assay: microbe, parasite or virus in culture; format: cell-based; conditions: TEM92639E, 18 h, read-out: Minimum Inhibitory Concentration
[10] = test system: Pseudomonas aeruginosa 1912E; assay: In vitro antibacterial activity (MIC, agar dilution), Biological Example 1; format: cell-based; conditions: 18 h, read-out: Minimum Inhibitory Concentration
[11] = test system: Pseudomonas aeruginosa 10145; assay: as above; format: cell-based; conditions: 18 h; Pseudomonas aeruginosa 10145, Table 25; read-out: Minimum Inhibitory Concentration
[12] = test system: Acinetobacter calcoaceticus 15473; assay: as above; format: cell-based; conditions: read-out: Minimum Inhibitory Concentration
[13] = test system: Citrobacter diversus 2046E; assay: as above; format: cell-based; conditions: Citrobacter koseri, 18 h, Table 25, read-out: Minimum Inhibitory Concentration
[14] = test system: Enterobacter cloacae 1194E; assay: microbe, parasite or virus in culture; format: cell-based; conditions: 18 h, read-out: Minimum Inhibitory Concentration
Enterobacter cloacae P99 = assay: microbe, parasite or virus in culture; format: cell-based; conditions: P99, 18 h, read-out: Minimum Inhibitory Concentration
[15] = test system: Klebsiella aerogenes 1976E; assay: In vitro antibacterial activity (MIC, agar dilution), Biological Example 1; format: cell-based; conditions: 18 h, Table 25, read-out: Minimum Inhibitory Concentration
[16] = test system: Klebsiella aerogenes 1082E; assay: as above; format: cell-based; conditions: 18 h, Table 25, read-out: Minimum Inhibitory Concentration
[17] = test system: Salmonella typimurium 14028; assay: as above; format: cell-based; conditions: 18 h; Salmonella typimurium 14028, Table 25; read-out: Minimum Inhibitory Concentration
[18] = Chemical stability under heating
Protocol: The anhydride and each of the hydrates was introduced into a glass vial and maintained at 70° C.

Pharmacokinetic test = format: in vivo; conditions: rat, blood, 20 mg/kg, SD rats (male); for half-life: read-out: T1/2 (biological half life) (converted)
[19] = Acinetobacter calcoaceticus, 15473, 18 h
[20] = 18 h, Escherichia coli 10536, Table 25
[21] = Pseudomonas aeruginosa 1912E, Table 25
[22] = 18 h, Acinetobacter calcoaceticus 15473, Table 25

For `CON=C1CN(c2nc3c(cc2F)c(=O)c(C(=O)O)cn3C2CC2)CC1CN` (centres unmarked) [Example 180, 7-(4-aminomethyl-3-methoxyiminonyrrolidin-1-yl)-1-cyclopropyl-6-fluoro-4-oxo-1,4-dihydro[1,8]naphthyridine-3-carboxylic acid], the MIC [1] was no more than 8 ng/mL, the MIC [2] was no more than 8 ng/mL and the MIC (Staphylococcus aureus 77) was no more than 8 ng/mL. The MIC [3] was 2 µg/mL (≈ 5.14 µM), the MIC [4] was no more than 0.008 µg/mL and the MIC [5] was 2 µg/mL (≈ 5.14 µM). It also gave an MIC [6] of 0.063 µg/mL (≈ 0.162 µM), an MIC (Bacillus subtilis 6633) of no more than 8 ng/mL and an MIC (Micrococcus luteus 9341) of 0.13 µg/mL (≈ 0.334 µM). For the same compound, the MIC (Escherichia coli 10536; Escherichia coli, 10536, 18 h) was no more than 0.008 µg/mL, the MIC (Escherichia coli 3190Y) was no more than 0.008 µg/mL and the MIC (Escherichia coli 851E) was no more than 0.008 µg/mL. The MIC [7] was 0.25 µg/mL (≈ 0.642 µM), the MIC [8] was 0.13 µg/mL (≈ 0.334 µM) and the MIC [9] was 0.031 µg/mL (≈ 0.0796 µM). For the same compound, the MIC ([10]; Pseudomonas aeruginosa, 1912E) was 0.25 µg/mL (≈ 0.642 µM), the MIC [11] was 0.25 µg/mL (≈ 0.642 µM) and the MIC [12, 19] was 0.0634 µg/mL (≈ 0.163 µM). The MIC [13] was 0.016 µg/mL (≈ 0.0411 µM), the MIC [14] was 0.031 µg/mL (≈ 0.0796 µM) and the MIC (Enterobacter cloacae P99) was no more than 0.008 µg/mL. It also gave an MIC [15] of 0.13 µg/mL (≈ 0.334 µM), an MIC [16] of 0.016 µg/mL (≈ 0.0411 µM) and an MIC [17] of 0.031 µg/mL (≈ 0.0796 µM).
With `CON=C1CN(c2c(F)cc3c(=O)c(C(=O)O)cn(C4CC4)c3c2Cl)CC1CN` (centres unmarked) [Example 178, 7-(4-aminomethyl-3-methoxyiminopyrrolidin-1-yl)-8-chloro-1-cycloprooyl-6-fluoro-4-oxo-1,4-dihydroquinoline-3-carboxylic acid] the MIC [1] was 31 ng/mL (≈ 0.0733 µM), the MIC [2] was 16 ng/mL (≈ 0.0378 µM) and the MIC (Staphylococcus aureus 77) was 31 ng/mL (≈ 0.0733 µM). For the same compound, the MIC [3] was 1 µg/mL (≈ 2.36 µM), the MIC [4] was 0.031 µg/mL (≈ 0.0733 µM) and the MIC [5] was 1 µg/mL (≈ 2.36 µM). For the same compound, the MIC [6] was 0.063 µg/mL (≈ 0.149 µM), the MIC (Bacillus subtilis 6633) was 16 ng/mL (≈ 0.0378 µM) and the MIC (Micrococcus luteus 9341) was 0.25 µg/mL (≈ 0.591 µM). For the same compound, the MIC (Escherichia coli 10536; Escherichia coli, 10536, 18 h) was 0.031 µg/mL (≈ 0.0733 µM), the MIC (Escherichia coli 3190Y) was 0.016 µg/mL (≈ 0.0378 µM) and the MIC (Escherichia coli 851E) was 0.063 µg/mL (≈ 0.149 µM). The MIC [7] was 1 µg/mL (≈ 2.36 µM), the MIC [8] was 0.5 µg/mL (≈ 1.18 µM) and the MIC [9] was 0.25 µg/mL (≈ 0.591 µM). It also gave an MIC ([10]; Pseudomonas aeruginosa, 1912E) of 0.5 µg/mL (≈ 1.18 µM), an MIC [11] of 1 µg/mL (≈ 2.36 µM) and an MIC [12, 19] of 0.13 µg/mL (≈ 0.307 µM). The MIC [13] was 0.13 µg/mL (≈ 0.307 µM), the MIC [14] was 0.13 µg/mL (≈ 0.307 µM) and the MIC (Enterobacter cloacae P99) was 0.063 µg/mL (≈ 0.149 µM). For the same compound, the MIC [15] was 0.5 µg/mL (≈ 1.18 µM), the MIC [16] was 0.25 µg/mL (≈ 0.591 µM) and the MIC [17] was 0.063 µg/mL (≈ 0.149 µM).
`C#CCCON=C1CN(c2nc3c(cc2F)c(=O)c(C(=O)O)cn3C2CC2)CC1CN` (centres unmarked) [Example 104] gave an MIC [1] of no more than 8 ng/mL, an MIC [2] of no more than 8 ng/mL and an MIC (Staphylococcus aureus 77) of no more than 8 ng/mL. It also gave an MIC [3] of 8 µg/mL (≈ 18.7 µM), an MIC [4] of 0.016 µg/mL (≈ 0.0374 µM) and an MIC [5] of 4 µg/mL (≈ 9.36 µM). It also gave an MIC [6] of 0.031 µg/mL (≈ 0.0725 µM), an MIC (Bacillus subtilis 6633) of no more than 8 ng/mL and an MIC (Micrococcus luteus 9341) of 0.13 µg/mL (≈ 0.304 µM). For the same compound, the MIC (Escherichia coli 10536; [20]) was no more than 0.008 µg/mL, the MIC (Escherichia coli 3190Y) was no more than 0.008 µg/mL and the MIC (Escherichia coli 851E) was no more than 0.008 µg/mL. The MIC [7] was 0.25 µg/mL (≈ 0.585 µM), the MIC [8] was 0.13 µg/mL (≈ 0.304 µM) and the MIC [9] was 0.031 µg/mL (≈ 0.0725 µM). The MIC [10, 21] was 1 µg/mL (≈ 2.34 µM), the MIC [11] was 1 µg/mL (≈ 2.34 µM) and the MIC [12, 22] was no more than 0.008 µg/mL. The MIC [13] was no more than 0.008 µg/mL, the MIC [14] was no more than 0.008 µg/mL and the MIC (Enterobacter cloacae P99) was 0.016 µg/mL (≈ 0.0374 µM). It also gave an MIC [15] of 0.13 µg/mL (≈ 0.304 µM), an MIC [16] of 0.031 µg/mL (≈ 0.0725 µM) and an MIC [17] of 0.031 µg/mL (≈ 0.0725 µM).
`CON=C1CN(c2nc3c(cc2F)c(=O)c(C(=O)O)cn3C2CC2)CC1CN` (centres unmarked) [Anhydrate, 7-(4-aminomethyl-3-methyloxyiminopyrrolidin-1-yl)-1-cyclopropyl-6-fluoro-4-oxo-1,4-dihydro-1,8-naphthyridine-3-carboxylic acid methanesulfonate anhydride] showed a thermal stability [18] of 99%, a remaining at 336 h ([18]; thermal stability, 2 weeks, 70° C.) of 97% and a remaining at 672 h ([18]; thermal stability, 4 weeks, 70° C.) of 95%.
Compound `CC(C)(C)ON=C1CN(c2nc3c(cc2F)c(=O)c(C(=O)O)cn3C2CC2)CC1CN` (centres unmarked) [Example 89, 7-(4-aminomethyl-3-t-butyloxyimino-pyrrolidin-1-yl)-1-cyclopropyl-6-fluoro-1,4-dihydro-4-oxo-1,8-naphthyridine-3-carboxylic acid] has an MIC [1] of no more than 8 ng/mL, an MIC [2] of no more than 8 ng/mL and an MIC (Staphylococcus aureus 77) of no more than 8 ng/mL. It also gave an MIC [3] of 1 µg/mL (≈ 2.32 µM), an MIC [4] of no more than 0.008 µg/mL and an MIC [5] of 0.5 µg/mL (≈ 1.16 µM). It also gave an MIC [6] of 0.063 µg/mL (≈ 0.146 µM), an MIC (Bacillus subtilis 6633) of no more than 8 ng/mL and an MIC (Micrococcus luteus 9341) of 0.25 µg/mL (≈ 0.579 µM). It also gave an MIC (Escherichia coli 10536; [20]) of 0.016 µg/mL (≈ 0.0371 µM), an MIC (Escherichia coli 3190Y) of 0.016 µg/mL (≈ 0.0371 µM) and an MIC (Escherichia coli 851E) of 0.063 µg/mL (≈ 0.146 µM). It also gave an MIC [7] of 0.25 µg/mL (≈ 0.579 µM), an MIC [8] of 0.13 µg/mL (≈ 0.301 µM) and an MIC [9] of 0.063 µg/mL (≈ 0.146 µM). It also gave an MIC [10, 21] of 2 µg/mL (≈ 4.64 µM), an MIC [11] of 2 µg/mL (≈ 4.64 µM) and an MIC [12, 22] of 0.031 µg/mL (≈ 0.0718 µM). The MIC [13] was 0.13 µg/mL (≈ 0.301 µM), the MIC [14] was 0.13 µg/mL (≈ 0.301 µM) and the MIC (Enterobacter cloacae P99) was 0.016 µg/mL (≈ 0.0371 µM). For the same compound, the MIC [15] was 0.5 µg/mL (≈ 1.16 µM), the MIC [16] was 0.25 µg/mL (≈ 0.579 µM) and the MIC [17] was 0.13 µg/mL (≈ 0.301 µM). For the same compound, the Cmax (Pharmacokinetic test; PO, read-out: Cmax (maximum blood concentration)) was 4890 ± 2230 ng/mL, the half-life (Pharmacokinetic test; PO) was 401 ± 167 min and the Tmax (Pharmacokinetic test; PO, read-out: Tmax (time showing maximum blood concentration)) was 2.18 ± 0.77 h. It also gave a bioavailability (Pharmacokinetic test; printed in the IV line, read-out: F (bioavailability)) greater than 100% and a half-life (Pharmacokinetic test; IV) of 137 ± 67.8 min.
